# ChEMBL document CHEMBL5537185, “Discovery of the First-in-Class RORγ Covalent Inhibitors for Treatment of Castration-Resistant Prostate Cancer” (J Med Chem, 2024)
# What was measured:
# LNCaP C4-2B = assay: Antiproliferative activity against human LNCaP C4-2B cells incubated for 4 days by CCK8 assay; details: 96 h
# LNCaP = assay: Antiproliferative activity against human LNCaP cells incubated for 4 days by CCK8 assay; details: 96 h
# [1] = Metabolic stability in mouse liver microsomes assessed as half life at 0.1 uM preincubated for 10 mins followed by NADPH addition and measured upto 60 mins by LC-MS/MS analysis; type: ADME, Microsome; details: time < 70 min
# CWR22R = assay: Antiproliferative activity against human 22Rv1 cells incubated for 4 days by CCK8 assay; details: 22Rv1, 96 h
# [2] = target: T1, Nuclear receptor ROR-gamma (Homo sapiens, UniProt P51449); assay: Inhibition of Gal4-fused RORgamma LBD (unknown origin) expressed in HEK293T cells incubated for 48 hrs by luciferase based assay; type: cell-based
# T1 sequence (P51449 whole entry): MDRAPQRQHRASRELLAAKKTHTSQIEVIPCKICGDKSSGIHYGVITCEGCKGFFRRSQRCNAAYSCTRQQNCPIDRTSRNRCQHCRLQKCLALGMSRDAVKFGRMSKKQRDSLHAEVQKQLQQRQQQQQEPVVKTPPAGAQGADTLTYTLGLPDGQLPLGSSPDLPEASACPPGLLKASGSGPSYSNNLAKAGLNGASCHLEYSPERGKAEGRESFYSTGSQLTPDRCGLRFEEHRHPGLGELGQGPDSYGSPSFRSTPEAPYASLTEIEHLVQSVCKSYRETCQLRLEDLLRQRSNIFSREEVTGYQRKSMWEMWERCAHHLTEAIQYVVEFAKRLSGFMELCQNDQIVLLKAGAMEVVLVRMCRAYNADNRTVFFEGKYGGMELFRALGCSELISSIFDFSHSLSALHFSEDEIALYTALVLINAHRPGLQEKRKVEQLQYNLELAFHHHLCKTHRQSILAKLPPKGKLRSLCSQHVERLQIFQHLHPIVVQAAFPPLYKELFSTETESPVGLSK
IC50 (LNCaP C4-2B) [µM],IC50 (LNCaP) [µM],half-life at 0.1 µM [1] [min],IC50 [2] [µM],SMILES,IC50 (CWR22R) [µM]
0.73,0.53,8.17,1.1,C=CC(=O)Nc1ccccc1-c1ccc(NC(=O)Cc2ccc(S(=O)(=O)CC)cc2)cc1F,1.44
–,–,–,2.02,C=CC(=O)Nc1ccccc1-c1ccc(NC(=O)Cc2cccc(C#N)c2)cc1C,–
–,–,–,4.08,C=CC(=O)Nc1ccccc1-c1ccc(NC(=O)Cc2ccc(S(=O)(=O)CC)cc2)cc1,–
